According to patent US20060110803A1 (Crucell Holland B.V., priority 2003, published 2006):

System: antibodies in sera of individuals which have been and/or are infected by SARS-CoV (SARS-green, SARS-yellow, 1a, 1b, 2, 6, 37, 62, London)
Type: binding, human

Sequence	recognition by sera of SARS-CoV infected individuals, looped/cyclic form	recognition by sera of SARS-CoV infected individuals, linear form
PELDSFKEELDKYFK [SEQ ID NO:1141]	recognized in looped/cyclic form	–
PPALNCYWPLNDYGF [SEQ ID NO:497]	recognized in looped/cyclic form	–
LQPELDSFKEELDKY [SEQ ID NO:1139]	recognized in looped/cyclic form	–
ALVSGTATAGWTFGA [SEQ ID NO:886]	–	recognized in linear form
NMYICGDSTECANLL [SEQ ID NO:749]	–	recognized in linear form
RLDKVEAEVQIDRLI [SEQ ID NO:993]	recognized in looped/cyclic form	–
TAGWTFGAGAALQIP [SEQ ID NO:893]	–	recognized in linear form
ATAGWTFGAGAALQI [SEQ ID NO:892]	–	recognized in linear form
TVYDPLQPELDSFKE [SEQ ID NO:1134]	recognized in looped/cyclic form	–
YICGDSTECANLLLQ [SEQ ID NO:751]	–	recognized in linear form
ELDSFKEELDKYFKN [SEQ ID NO:1142]	recognized in looped/cyclic form	–
PCTPPALNCYWPLND [SEQ ID NO:494]	recognized in looped/cyclic form	–
VPFSPDGKPCTPPAL [SEQ ID NO:486]	–	recognized in linear form
ICGDSTECANLLLQY [SEQ ID NO:752]	–	recognized in linear form
IFLLFLTLTSGSDLD [SEQ ID NO:42]	recognized in looped/cyclic form	–
DKVEAEVQIDRLITG [SEQ ID NO:995]	recognized in looped/cyclic form	–
SGTATAGWTFGAGAA [SEQ ID NO:889]	–	recognized in linear form
SLTTTSTALGKLQDV [SEQ ID NO:947]	recognized in looped/cyclic form	–
AQALNTLVKQLSSNF [SEQ ID NO:966]	recognized in looped/cyclic form	–
NLNESLIDLQELGKY [SEQ ID NO:1188]	recognized in looped/cyclic form	–

Sequence	recognition by sera of SARS-CoV infected individuals, looped/cyclic form	recognition by sera of SARS-CoV infected individuals, linear form
VNQNAQALNTLVKQL [SEQ ID NO:962]	recognized in looped/cyclic form	–
TSGSDLDRCTTFDDV [SEQ ID NO:50]	recognized in looped/cyclic form	–
KTSVDCNMYICGDST [SEQ ID NO:743]	–	recognized in linear form
TSPDVDLGDISGINA [SEQ ID NO:1156]	recognized in looped/cyclic form	–
LDSFKEELDKYFKNH [SEQ ID NO:1143]	recognized in looped/cyclic form	–
VYYPDEIFRSDTLYL [SEQ ID NO:79]	recognized in looped/cyclic form	–
DVVNQNAQALNTLVK [SEQ ID NO:960]	recognized in looped/cyclic form	–
LGFIAGLIAIVMVTI [SEQ ID NO:1214]	recognized in looped/cyclic form	–
RGVYYPDEIFRSDTL [SEQ ID NO:77]	recognized in looped/cyclic form	–
MFIFLLFLTLTSGSD [SEQ ID NO:40]	recognized in looped/cyclic form	–
SPDGKPCTPPALNCY [SEQ ID NO:489]	–	recognized in linear form
NGLTVLPPLLTDDMI [SEQ ID NO:866]	recognized in looped/cyclic form	–
LTTTSTALGKLQDVV [SEQ ID NO:948]	recognized in looped/cyclic form	–
FLTLTSGSDLDRCTT [SEQ ID NO:46]	recognized in looped/cyclic form	–
LVSGTATAGWTFGAG [SEQ ID NO:887]	–	recognized in linear form
LDKYFKNHTSPDVDL [SEQ ID NO:1148]	recognized in looped/cyclic form	–
TEVMPVSMAKTSVDC [SEQ ID NO:734]	recognized in looped/cyclic form	–
VVNQNAQALNTLVKQ [SEQ ID NO:961]	recognized in looped/cyclic form	–
CNMYICGDSTECANL [SEQ ID NO:748]	–	recognized in linear form
LTLTSGSDLDRCTTF [SEQ ID NO:47]	recognized in looped/cyclic form	–

Sequence	recognition by sera of SARS-CoV infected individuals, looped/cyclic form	recognition by sera of SARS-CoV infected individuals, linear form
NQNAQALNTLVKQLS [SEQ ID NO:963]	recognized in looped/cyclic form	–
MYICGDSTECANLLL [SEQ ID NO:750]	–	recognized in linear form
TTTSTALGKLQDVVN [SEQ ID NO:949]	recognized in looped/cyclic form	–
WYVWLGFIAGLIAIV [SEQ ID NO:1210]	recognized in looped/cyclic form	–
QIQESLTTTSTALGK [SEQ ID NO:943]	recognized in looped/cyclic form	–
SRLDKVEAEVQIDRL [SEQ ID NO:992]	recognized in looped/cyclic form	–
NAQALNTLVKQLSSN [SEQ ID NO:965]	recognized in looped/cyclic form	–
GSDLDRCTTFDDVQA [SEQ ID NO:52]	recognized in looped/cyclic form	–
EVMPVSMAKTSVDCN [SEQ ID NO:735]	recognized in looped/cyclic form	–
DCNMYICGDSTECAN [SEQ ID NO:747]	–	recognized in linear form
DSFKEELDKYFKNHT [SEQ ID NO:1144]	recognized in looped/cyclic form	–
DKYFKNHTSPDVDLG [SEQ ID NO:1149]	recognized in looped/cyclic form	–
QALNTLVKQLSSNFG [SEQ ID NO:967]	recognized in looped/cyclic form	–
TLTSGSDLDRCTTFD [SEQ ID NO:48]	recognized in looped/cyclic form	–
KNHTSPDVDLGDISG [SEQ ID NO:1153]	recognized in looped/cyclic form	–
FKNHTSPDVDLGDIS [SEQ ID NO:1152]	recognized in looped/cyclic form	–
GVYYPDEIFRSDTLY [SEQ ID NO:78]	recognized in looped/cyclic form	–
DRLNEVAKNLNESLI [SEQ ID NO:1180]	recognized in looped/cyclic form	–
QKFNGLTVLPPLLTD [SEQ ID NO:863]	recognized in looped/cyclic form	–
